Test results published in ChEMBL document CHEMBL1201862, “PubChem BioAssay data set” (2004).
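48-hour exposure; five concentrations; linearly interpolated endpoints. The concentration for 50% growth inhibition is given as GI50.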 Activity calls are given as the source filed them. No stated cut-off is given here; in the data, active = GI50 up to about 1.1 µM and inactive = higher.

Key:
Test in all cases: NCI tumour cell line growth inhibition, 48 h
XF498 = tested on: XF498
DLD-1 = tested on: DLD-1
OVCAR-3 = tested on: OVCAR-3
HCT-15 = tested on: HCT-15
SF-268 = tested on: SF-268
SK-MEL-2 = tested on: SK-MEL-2
COLO 205 = tested on: COLO 205
RXF 393 = tested on: RXF 393
SN12C = tested on: SN12C
NCI-H522 = tested on: NCI-H522
M19-MEL = tested on: M19-MEL
RXF 631 = tested on: RXF 631
LOX IMVI = tested on: LOX IMVI
EKVX = tested on: EKVX
U-251 = tested on: U-251
DMS-273 = tested on: DMS-273
UACC-257 = tested on: UACC-257
NCI-H460 = tested on: NCI-H460
KM-20L2 = tested on: KM-20L2
HT-29 = tested on: HT-29
SW-620 = tested on: SW-620
OVCAR-4 = tested on: OVCAR-4
SNB-19 = tested on: SNB-19
OVCAR-8 = tested on: OVCAR-8
SF-295 = tested on: SF-295
HOP-18 = tested on: HOP-18
NCI-H23 = tested on: NCI-H23
SK-MEL-5 = tested on: SK-MEL-5
ACHN = tested on: ACHN
TK-10 = tested on: TK-10
A549 = tested on: A549
NCI-H226 = tested on: NCI-H226
RPMI-8226 = tested on: RPMI-8226
MOLT-4 = tested on: MOLT-4
KM12 = tested on: KM12
SK-MEL-28 = tested on: SK-MEL-28
UO-31 = tested on: UO-31
CCRF-CEM = tested on: CCRF-CEM
OVCAR-5 = tested on: OVCAR-5
CAKI-1 = tested on: CAKI-1
786-0 = tested on: 786-0
Malme-3M = tested on: Malme-3M
HCT-116 = tested on: HCT-116
UACC-62 = tested on: UACC-62
SK-OV-3 = tested on: SK-OV-3
K562 = tested on: K562
SF-539 = tested on: SF-539
DMS-114 = tested on: DMS-114
SNB-75 = tested on: SNB-75
LXFL 529 = tested on: LXFL 529
IGROV-1 = tested on: IGROV-1
SNB-78 = tested on: SNB-78
M14 = tested on: M14

With `Cc1cc2c(=O)cc(-c3ccc(Cl)cc3)oc2c(C(=O)O)c1C` the GI50 (XF498) was > 100 µM (inactive), the GI50 (DLD-1) was > 100 µM (inactive) and the GI50 (OVCAR-3) was > 100 µM (inactive). For the same compound, the GI50 (HCT-15) was > 100 µM, the GI50 (SF-268) was > 100 µM (inactive) and the GI50 (SK-MEL-2) was > 100 µM (inactive). The GI50 (COLO 205) was > 100 µM (inactive), the GI50 (RXF 393) was > 100 µM (inactive) and the GI50 (SN12C) was > 100 µM (inactive). The GI50 (NCI-H522) was 29.5 µM (inactive), the GI50 (M19-MEL) was > 100 µM (inactive) and the GI50 (RXF 631) was > 100 µM (inactive). The GI50 (LOX IMVI) was > 100 µM (inactive), the GI50 (EKVX) was > 100 µM (inactive) and the GI50 (U-251) was > 100 µM (inactive). For the same compound, the GI50 (DMS-273) was > 100 µM (inactive), the GI50 (UACC-257) was > 100 µM (inactive) and the GI50 (NCI-H460) was > 100 µM (inactive). For the same compound, the GI50 (KM-20L2) was > 100 µM (inactive), the GI50 (HT-29) was > 100 µM (inactive) and the GI50 (SW-620) was > 100 µM (inactive). The GI50 (OVCAR-4) was > 100 µM (inactive), the GI50 (SNB-19) was > 100 µM (inactive) and the GI50 (OVCAR-8) was > 100 µM (inactive). The GI50 (SF-295) was > 100 µM (inactive), the GI50 (HOP-18) was > 100 µM (inactive) and the GI50 (NCI-H23) was > 100 µM (inactive). For the same compound, the GI50 (SK-MEL-5) was > 100 µM (inactive), the GI50 (ACHN) was > 100 µM (inactive) and the GI50 (TK-10) was > 100 µM (inactive). For the same compound, the GI50 (A549) was > 100 µM (inactive), the GI50 (NCI-H226) was > 100 µM (inactive) and the GI50 (RPMI-8226) was > 100 µM (inactive). For the same compound, the GI50 (MOLT-4) was > 100 µM (inactive), the GI50 (KM12) was > 100 µM (inactive) and the GI50 (SK-MEL-28) was > 100 µM (inactive). For the same compound, the GI50 (UO-31) was > 100 µM (inactive), the GI50 (CCRF-CEM) was > 100 µM (inactive) and the GI50 (OVCAR-5) was > 100 µM (inactive). The GI50 (CAKI-1) was > 100 µM (inactive), the GI50 (786-0) was > 100 µM (inactive) and the GI50 (Malme-3M) was > 100 µM (inactive). The GI50 (HCT-116) was > 100 µM (inactive), the GI50 (UACC-62) was > 100 µM (inactive) and the GI50 (SK-OV-3) was > 100 µM (inactive). For the same compound, the GI50 (K562) was > 100 µM (inactive), the GI50 (SF-539) was > 100 µM (inactive) and the GI50 (DMS-114) was > 100 µM (inactive). For the same compound, the GI50 (SNB-75) was > 100 µM (inactive), the GI50 (LXFL 529) was > 100 µM (inactive) and the GI50 (IGROV-1) was > 100 µM (inactive). For the same compound, the GI50 (SNB-78) was > 100 µM (inactive) and the GI50 (M14) was > 100 µM (inactive).
